Source: PubChem BioAssay AID1963965 (Molecular Pharmacology Branch, DTP, NCI, 2024)

Tested on: 996289-038-R-J1-PDC spheroid viability
Assay: Anticancer human tumor 996289-038-R-J1-PDC patient-derived colon adenocarcinoma cell line growth inhibition [PI3K]
Conditions: spheroids with HUVEC and MSC; for IC50: curve of first compound; for viability, T/C: stronger effect = lower value
How it was run: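 Multi-cell spheroids combine tumor cells with HUVEC and human MSCs, treated with targeted agents alone or with inavolisib, alpelisib, duvelisib or copanlisib. Concentrations fall in half-log steps from at or near clinical Cmax, or from 10 microM where Cmax is unknown; viability read-out.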

[1] = second compound 0.0316 µM, first compound 0.0316 µM
[2] = second compound 0.0316 µM, first compound 0.1 µM
[3] = second compound 0.0316 µM, first compound 0.316 µM
[4] = second compound 0.0316 µM, first compound 1 µM
[5] = second compound 0.0316 µM, first compound 3.16 µM
[6] = second compound 0.0316 µM, first compound 10 µM
[7] = second compound 0.1 µM, first compound 0.0316 µM
[8] = second compound 0.1 µM, first compound 0.1 µM
[9] = second compound 0.1 µM, first compound 0.316 µM
[10] = second compound 0.1 µM, first compound 1 µM
[11] = second compound 0.1 µM, first compound 3.16 µM
[12] = second compound 0.1 µM, first compound 10 µM
[13] = second compound 0.316 µM, first compound 0.0316 µM
[14] = second compound 0.316 µM, first compound 0.1 µM
[15] = second compound 0.316 µM, first compound 0.316 µM
[16] = second compound 0.316 µM, first compound 1 µM
[17] = second compound 0.316 µM, first compound 3.16 µM
[18] = second compound 0.316 µM, first compound 10 µM
[19] = second compound 1 µM, first compound 0.0316 µM
[20] = second compound 1 µM, first compound 0.1 µM
[21] = second compound 1 µM, first compound 0.316 µM
[22] = second compound 1 µM, first compound 1 µM
[23] = second compound 1 µM, first compound 3.16 µM
[24] = second compound 1 µM, first compound 10 µM
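Also: spheroids exposed to compounds for seven days before viability read.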
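For viability, T/C in this document: luminescence used as a proxy for viable cell amount; percent viability relative to DMSO vehicle control as 100%.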

CC(C)NCC(C(=O)N1CCN(c2ncnc3c2C(C)CC3O)CC1)c1ccc(Cl)cc1 (centres undefined) + COc1c(OCCCN2CCOCC2)ccc2c3n(c(=NC(=O)c4cnc(N)nc4)nc12)CCN3
IC50 (second compound 0.00316 µM): > 10 µM
IC50 (second compound 0.01 µM): > 10 µM
IC50 (second compound 0.0316 µM): > 10 µM
IC50 (second compound 0.1 µM): 4.89 µM
IC50 (second compound 0.316 µM): < 0.0316 µM
IC50 (second compound 1 µM): < 0.0316 µM
viability, T/C (second compound 0.00316 µM, first compound 0.0316 µM): 98.9%
viability, T/C (second compound 0.00316 µM, first compound 0.1 µM): 82.3%
viability, T/C (second compound 0.00316 µM, first compound 0.316 µM): 103%
viability, T/C (second compound 0.00316 µM, first compound 1 µM): 103%
viability, T/C (second compound 0.00316 µM, first compound 3.16 µM): 103%
viability, T/C (second compound 0.00316 µM, first compound 10 µM): 62.2%
viability, T/C (second compound 0.01 µM, first compound 0.0316 µM): 87.6%
viability, T/C (second compound 0.01 µM, first compound 0.1 µM): 84.9%
viability, T/C (second compound 0.01 µM, first compound 0.316 µM): 101%
viability, T/C (second compound 0.01 µM, first compound 1 µM): 102%
viability, T/C (second compound 0.01 µM, first compound 3.16 µM): 106%
viability, T/C (second compound 0.01 µM, first compound 10 µM): 65.3%
viability, T/C [1]: 86.3%
viability, T/C [2]: 77.1%
viability, T/C [3]: 78%
viability, T/C [4]: 89%
viability, T/C [5]: 76.1%
viability, T/C [6]: 51.1%
viability, T/C [7]: 59.7%
viability, T/C [8]: 55.8%
viability, T/C [9]: 57%
viability, T/C [10]: 66.9%
viability, T/C [11]: 57.3%
viability, T/C [12]: 36.7%
viability, T/C [13]: 32.9%
viability, T/C [14]: 33.7%
viability, T/C [15]: 38.1%
viability, T/C [16]: 32.5%
viability, T/C [17]: 38.6%
viability, T/C [18]: 27.1%
viability, T/C [19]: 24%
viability, T/C [20]: 18.5%
viability, T/C [21]: 18%
viability, T/C [22]: 23%
viability, T/C [23]: 20.1%
viability, T/C [24]: 15.3%

Cn1nccc1Nc1nccc(-c2ccn(C(CO)c3ccc(Cl)c(F)c3)c(=O)c2)n1 (centres undefined) + Cc1nc(NC(=O)N2CCCC2C(N)=O)sc1-c1ccnc(C(C)(C)C(F)(F)F)c1
IC50 (second compound 0.0316 µM): > 10 µM
IC50 (second compound 0.1 µM): > 10 µM
IC50 (second compound 0.316 µM): > 10 µM
IC50 (second compound 1 µM): 3.53 µM
IC50 (second compound 3.16 µM): 3.56 µM
IC50 (second compound 10 µM): < 0.0316 µM
viability, T/C [1]: 106%
viability, T/C [2]: 114%
viability, T/C [3]: 108%
viability, T/C [4]: 85.8%
viability, T/C [5]: 97%
viability, T/C [6]: 55.2%
viability, T/C [7]: 107%
viability, T/C [8]: 96.8%
viability, T/C [9]: 101%
viability, T/C [10]: 85.6%
viability, T/C [11]: 70.2%
viability, T/C [12]: 52.1%
viability, T/C [13]: 92.5%
viability, T/C [14]: 84.5%
viability, T/C [15]: 101%
viability, T/C [16]: 72.7%
viability, T/C [17]: 61.4%
viability, T/C [18]: 49.5%
viability, T/C [19]: 76.8%
viability, T/C [20]: 90%
viability, T/C [21]: 72.5%
viability, T/C [22]: 62%
viability, T/C [23]: 54.1%
viability, T/C [24]: 38.8%
viability, T/C (second compound 3.16 µM, first compound 0.0316 µM): 54.8%
viability, T/C (second compound 3.16 µM, first compound 0.1 µM): 57.4%
viability, T/C (second compound 3.16 µM, first compound 0.316 µM): 63%
viability, T/C (second compound 3.16 µM, first compound 1 µM): 54.9%
viability, T/C (second compound 3.16 µM, first compound 3.16 µM): 52.9%
viability, T/C (second compound 3.16 µM, first compound 10 µM): 27.1%
viability, T/C (second compound 10 µM, first compound 0.0316 µM): 44.7%
viability, T/C (second compound 10 µM, first compound 0.1 µM): 40.6%
viability, T/C (second compound 10 µM, first compound 0.316 µM): 57.9%
viability, T/C (second compound 10 µM, first compound 1 µM): 34.7%
viability, T/C (second compound 10 µM, first compound 3.16 µM): 29.4%
viability, T/C (second compound 10 µM, first compound 10 µM): 15.7%
